Here are results for two molecules from patent US20250152559A1, “METHODS FOR TREATING MYC-AMPLIFIED CANCER” (The Governing Council of the University of Toronto, priority 2023, published 2025).

Common to all, as to experiment: PrestoBlue cell viability, 72-hour treatment, limiting dilution
The test system of test [1] is D425. The test is classed as cell-based. Particulars: Homo sapiens; D425, G3MB-MYC; read-out: Brequinar IC50. On the procedure: (§1) SU_MB002, NSC194, NSC197 and NSC201FT, MBT375 and MED411FHTC were maintained in Neurocult Complete (NCC) media (Stem Cell Technologies; catalogue #05751). D425 and D458 were maintained in Dulbecco's […] (DMEM) containing 10% fetal bovine serum (FBS). HD-MB03 were maintained in NCC containing 10% FBS. All cell lines were conditioned in NCC for a minimum of 48 hours before experimentation. SU_MB002 and HD-MB03 G3MB-MYC PDOX were obtained from collaborators as kind gifts and are frequently passaged in vivo. SU_MB002, a treatment-refractory group 3 MB acquired at autopsy was received from Dr. Yoon-Jae Cho. Dr. Till Milde provided HD-MB03, a treatment-naïve group 3 MBs. ICB1299 group 4 MB cells were obtained as a gift from Silvia Marino's laboratory^62. MBT375 was established in-house from a surgical specimen of group 4 MB, which was engrafted in the cerebellum of mice for serial propagation. Nanostring genotyping was used to confirm group 4 medulloblastoma identity. MED411FHTC PDOX were procured from Dr. Olson's brain tumor research lab. D425 and D458 were obtained from the ATCC. All cell lines were fingerprint verified by short tandem repeat (STR) profiling. NSC194, NSC197 and NSC201FT were derived in-house from donor fetal brain tissues^63.
(§2) For assessment of viability, cells were seeded into 96-well plates at a density of 1,000 cells per well. Viability was measured by adding PrestoBlue™ diluted 1:10 (ThermoFisher Scientific; Catalogue #A13261) followed by a 4-hour incubation. Relative fluorescence intensity was determined via background correction. To assess tumorsphere forming capacity, cells were seeded at a low density (200 cells per well) and incubated for 3-5 days. Tumorspheres were manually counted thereafter.

For test [2], the system named is HD-MB03. It counts as cell-based. Particulars: Homo sapiens; HD-MB03, G3MB-MYC; read-out: Brequinar IC50. On the procedure:
as §1, §2

Test [3] deals with MED411-FHTC. It counts as cell-based. Particulars: Homo sapiens, G3MB-MYC, read-out: Brequinar IC50. The method, then:
as §1, §2

Test [4] concerns D458. It counts as cell-based. Particulars: Homo sapiens; D458, G3MB-MYC; read-out: Brequinar IC50. On the procedure: as §1, §2
The test system of test [5] is SU_MB002. The test is classed as cell-based, human. Particulars: for potency on tumor cell viability: SU_MB002 tumor cells. On the procedure:
as §1, §2

`Cc1c(-c2ccc(-c3ccccc3F)cc2)nc2ccc(F)cc2c1C(=O)O` [Brequinar]: the IC50 was found to be 122 nM in test [1]; 54.4 nM in test [2]; 137 nM in test [3]; 110 nM in test [4]; 302 nM in test [5] (Homo sapiens, SU_MB002, G3MB-MYC, read-out: Brequinar IC50). For the same molecule, the “tumor cell proliferation and viability with uridine supplementation” value in test [5] (SU_MB002, media with uridine hydrochloride (100 μM)) is listed as “rescues”. Besides, in test [5], the “potency on tumor cell viability” value is “nanomolar range”.

For `COc1ccc([C@H]2c3[nH]c4ccc(Cl)cc4c3CCN2C(=O)Oc2ccc(Cl)cc2)cc1` [PTC299], the “potency on tumor cell viability” value in test [5] was “nanomolar range”.

A word on the IC50: it is the concentration that inhibits the measured activity by half.
